This assay deals with OTU domain-containing protein 3 (Homo sapiens) (UniProt Q5T2D3). As to the kind of experiment: Validation of screening hits, potency titration, in vitro enzymatic, OTU domain-containing protein 3 DUB inhibitors (AID 1645868). As to conditions: purified OTUD3, ubiquitin-rhodamine cleavage fluorescence, 2 h.

The source of these data is PubChem BioAssay AID1645868 (Buhrlage Lab, Dana-Farber Cancer Institute and Novartis …, 2021).

The source made the active and inactive calls.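 How the source made its calls: active means maximal percent inhibition of the deubiquitinase OTUD3 of at least 30% across the tested doses; inactive means the rest.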

OTU domain-containing protein 3 (Homo sapiens), sequence (Q5T2D3 whole entry, looked up, the tested form may be a part): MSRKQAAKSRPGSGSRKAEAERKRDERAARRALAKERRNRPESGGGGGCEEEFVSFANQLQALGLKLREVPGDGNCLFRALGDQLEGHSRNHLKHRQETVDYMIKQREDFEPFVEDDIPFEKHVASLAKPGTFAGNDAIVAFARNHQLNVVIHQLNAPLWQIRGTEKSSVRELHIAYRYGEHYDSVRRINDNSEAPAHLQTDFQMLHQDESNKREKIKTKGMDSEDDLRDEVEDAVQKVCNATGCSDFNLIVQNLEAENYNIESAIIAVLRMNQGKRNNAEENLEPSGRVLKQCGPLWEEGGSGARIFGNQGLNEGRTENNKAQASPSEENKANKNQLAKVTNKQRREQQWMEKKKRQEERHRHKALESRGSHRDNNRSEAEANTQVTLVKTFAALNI

In the case of `Cc1nc(SCC#N)c2oc3ccccc3c2n1`, the IC50 (as a rule, the concentration at which inhibition is half-maximal) is > 50 µM (inactive).

As to `Cc1ncc(CO)c2c1Oc1nc(-c3cccc(Cl)c3)nc(SCC(=O)N3CCCCC3)c1C2`, the IC50 was > 5 µM (inactive). For `CC(C)NS(=O)(=O)c1ccc(OCC(=O)N2CCC(Cc3ccccc3)CC2)cc1`, the IC50 was > 50 µM (inactive). As for `CC(C)(C)c1ccc(C(=O)Nc2ccc(Cn3cncn3)cc2)cc1`, the IC50 is > 50 µM (inactive). On to `CO[C@H]1CC[C@H](O)c2c1oc1c3c4c(c(O)c1c2=O)-c1c(cc2c(Cl)c(C)n(N)c(=O)c2c1O)C[C@@H]4OCO3`, for which the half-maximal inhibitory concentration (IC50) is 26.6 µM.

Consider `O=C(Cn1c(=O)n(CCCC(=O)N2CC=C(c3ccccc3)CC2)c(=O)c2ccccc21)NCCC1=CCCCC1`, for which the IC50 was > 50 µM (inactive). Take `O=C(NCc1ccccc1)Nc1cccc2ccccc12`: the half-maximal inhibitory concentration (IC50) was 40.3 µM. `CC1CCCCN1c1nc(F)c2c(c1F)S(=O)(=O)CCN2Cc1ccccc1` (stereo not given): the IC50 was > 50 µM (inactive).

As to `COc1ccc2c(C)c(CC(=O)N3CCC[C@H]3C(=O)O)c(=O)oc2c1C`, the IC50 is > 50 µM (inactive). Take `CCOc1ccc2[nH]c3c(=O)n(CCc4ccc(OC)cc4)cnc3c2c1`: the half-inhibitory concentration (IC50) was 28.6 µM.

`c1ccc2c(c1)ccc1nnc(-c3ccc4c(c3)OCO4)n12`: the IC50 was > 50 µM (inactive). With `CCCc1nc2sc3c(N(CC)CC)ncnc3c2c2c1CCC2`, the IC50 is > 50 µM (inactive). Consider `Cc1cccc(-n2ccnc(SCC(=O)Nc3ccc(Cl)cc3F)c2=O)c1`, for which the 50% inhibitory concentration (IC50) is 27.7 µM.

On to `NC(=O)Cn1c(=O)n(Cc2ccc(C(=O)NC3CCCC3)cc2)c(=O)c2ccccc21`, for which the IC50 was > 50 µM (inactive). `O=C(Nc1ccccc1)c1nc2c(s1)CCN(C(=O)c1ccccc1)CC2`: the IC50 is > 50 µM (inactive). On to `COc1ccccc1NC(=O)Cn1cc(C(=O)c2ccc(C)cc2)c(=O)c2ccccc21`, for which the half-maximal inhibitory concentration (IC50) is 39.5 µM. The figure for `CCC/C=C\C#CC/C=C\CCCCCCCC(=O)O` is 1.37 µM; for `CC(c1ccccc1)c1nc(-c2ccc(=O)[nH]c2)no1` (stereo not given) it is > 50 µM (inactive); for `CS(=O)(=O)N1CCCc2cc(C(=O)Nc3ccc4c(c3)OCO4)ccc21` it is > 50 µM (inactive). Regarding `Cc1cccc(C(=O)Nc2ccc3c(c2)nc(CSc2nccc(C)n2)n3C)c1`, the IC50 was > 50 µM (inactive).

Take `COc1ccccc1NC(=O)CNC(=O)c1nn(-c2ccc(OC)c(OC)c2)c(=O)c2ccccc12`: the IC50 is 38.8 µM. Regarding `CC(C)c1nc2sc3c(NCc4ccco4)ncnc3c2c2c1CCC2`, the IC50 was > 50 µM (inactive). Consider `Cc1ccc(Cn2cc(-c3noc(-c4ccncc4)n3)nn2)cc1`, for which the IC50 was > 50 µM (inactive). As for `CC(C)N1C[C@@H]2C[C@H](NS(=O)(=O)c3cccc(C#N)c3)CN2Cc2ccccc21`, the IC50 is > 50 µM (inactive). As for `COc1cccc(N2C(=O)N(CC(=O)NCc3ccc(Cl)cc3)c3ccccc3S2(=O)=O)c1`, the half-maximal inhibitory concentration (IC50) was 20 µM. With `Cc1nc(-c2ccc3c(c2)nnn3CCN2CCOCC2)no1`, the IC50 was > 50 µM (inactive).

For `COc1ccc(OC)c(NC(=O)Cn2c(=O)n(CC3CCC(C(=O)NCCc4ccccc4)CC3)c(=O)c3ccccc32)c1` (stereo not given), the 50% inhibitory concentration (IC50) was 31.3 µM. As for `COCCCn1c(C(=O)Nc2ccccc2OC)cc2c(=O)n3ccccc3nc21`, the figure is > 50 µM (inactive); as for `COc1ccc(OC)c2c(C)cc(N3CCN(S(=O)(=O)c4ccc5c(c4)CCCN5S(C)(=O)=O)CC3)nc12`, 21.1 µM; as for `COc1cc2c(cc1NC(=O)c1ccc(-n3cnnn3)cc1)oc1ccccc12`, > 50 µM (inactive). With `COc1cccc2c1C(=O)c1ccc3c(c1C2=O)C(=O)CC(C)(O)C3` (stereo not given), the IC50 was > 50 µM (inactive). For the compound `Cc1cc(C)c2cc(CN(CCc3ccccc3)C(=O)Nc3ccccc3)c(=O)[nH]c2c1`, the IC50 was > 50 µM (inactive). As for `O=C1CC(O)C(C2=CC(=O)c3c(O)cccc3C2=O)O1` (stereo not given), the figure is 2.47 µM; as for `Cc1ccc(Cn2nnc(-c3noc(-c4ccc[nH]4)n3)c2C)cc1`, > 50 µM (inactive); as for `COc1ccc(-c2cc(-c3ccccc3)nc(SCC(N)=O)c2C#N)cc1OC`, 10.5 µM. The figure for `O=C(/C=C/c1ccco1)c1cccc([N+](=O)[O-])c1` is 23.2 µM. Regarding `O=c1c(NCCCN2CCCC2)nc2ccncc2n1Cc1ccccc1`, the IC50 was > 50 µM (inactive). As for `CCOc1ccccc1C(=O)Oc1ccc2c(C)cc(=O)oc2c1`, the IC50 is 32.4 µM. Turning to `COc1cccc(NC(=O)Nc2ccc(CCc3nc4ccccc4[nH]3)cc2)c1`, the IC50 was 48.5 µM. For `COc1ccc(CCNC(=O)c2cc3ccccc3s2)cc1OC`, the IC50 is > 50 µM (inactive).

With `Cc1ccccc1-c1nnc(-c2ccc(C(=O)NCc3ccccc3F)cc2)o1`, the IC50 was 31.6 µM. Turning to `COc1ccc2c(c1)c(N1CCCC1=O)c(C(=O)NCc1cccc(OC)c1OC)n2C`, the IC50 is > 50 µM (inactive). As for `O=S(=O)(Cc1nnc(-c2ccccc2C(F)(F)F)o1)c1ccc(Cl)cc1`, the IC50 was > 50 µM (inactive). Consider `Cc1noc(-c2ccc(N3CCCC(C(=O)NCc4ccc(F)cc4)C3)nc2)n1` (stereo not given), for which the 50% inhibitory concentration (IC50) was 32.2 µM. Regarding `O=C(Nc1ccc(NS(=O)(=O)c2ccc3c4c(cccc24)CC3)cc1)c1ccccc1`, the IC50 was > 50 µM (inactive). As for `Clc1cc2nc(N3CCN(c4ccccn4)CC3)c3nncn3c2cc1Cl`, the figure is 4.78 µM; as for `CC(C)CCN1C(=O)C2C(C(=O)Nc3ccc(Oc4ccccc4)cc3)C3C=CC2(O3)C1C(=O)NC1CCCCC1` (stereo not given), 30.7 µM; as for `Cc1sc2ncnc(OCc3ccc(F)cc3Cl)c2c1C`, > 50 µM (inactive).

On to `Nc1c(-c2ccc(Cl)cc2)cnc2cc(-c3ccc(Cl)c(Cl)c3)nn12`, for which the half-inhibitory concentration (IC50) is 16.1 µM.

In the case of `CCOc1ccc(CCNC(=O)c2ccc3c(c2)N(CC)C(=O)c2ccccc2S3)cc1OCC`, the IC50 is > 50 µM (inactive). For `N#Cc1ccccc1Cn1c(=O)n(CCCCC(=O)NCCc2ccccc2)c(=O)c2ccccc21`, the half-maximal inhibitory concentration (IC50) was 23.7 µM. As for `O=C(NCc1ccc2c(c1)OCO2)c1nn(C23CC4CC(CC(C4)C2)C3)cc1[N+](=O)[O-]`, the IC50 is > 50 µM (inactive).

Consider `COc1cc2c(=O)n(CCC(=O)NCc3ccco3)c(=O)n(CC(=O)Nc3c(C)cccc3C)c2cc1OC`, for which the IC50 was > 50 µM (inactive).

Turning to `CC1CCc2c(sc3ncnc(OCc4cccc([N+](=O)[O-])c4)c23)C1` (stereo not given), the IC50 was > 50 µM (inactive). As for `CCOc1ccccc1NC(=O)Cn1ccn2nc(-c3ccc(OC)cc3)cc2c1=O`, the IC50 was > 50 µM (inactive).

Consider `COc1ccc(-n2nnc(C(=O)Nc3ccc(F)cc3)c2C)cc1`, for which the IC50 was > 50 µM (inactive).

Take `O=C(Nc1ccc(N2CCOCC2)cc1)c1ccc(-c2ccc(N3CCCC3)nn2)cc1`: the IC50 was > 50 µM (inactive). With `Cc1c(-c2ccccc2)oc2c(C(=O)OCC(=O)Nc3ccccc3F)cccc2c1=O`, the IC50 is > 50 µM (inactive). For `CC1=C[C@H]2N(c3ccc(C)cc31)[C@H](C(=O)c1cccs1)[C@@H](C(=O)c1ccc(F)cc1)[C@]21C(=O)Nc2ccccc21`, the IC50 was > 50 µM (inactive). The figure for `COc1ccc(NC(=O)c2sc(N3CCOCC3)nc2-c2ccccc2)c(OC)c1` is 43.5 µM.

With `COc1ccc(Cl)cc1NC(=O)Cn1c(=O)cc(C)c2c(C)nn(-c3ccccc3)c21`, the IC50 was 44.3 µM.

`COc1ccc(-c2cnnn2-c2ccc(NC(=O)c3c(F)cccc3F)cc2)cc1OC`: the IC50 was > 50 µM (inactive). Regarding `CC(=O)N1CCc2cc(CNC(=O)Nc3cc(C)ccc3C)ccc21`, the IC50 is > 50 µM (inactive).

As for `C=C1CCC2[C@](C)(CCC[C@]2(C)C(=O)OC)[C@H]1CCc1ccoc1CNC(C)C` (stereo not given in full), the IC50 was > 50 µM (inactive). For `COc1ccc(NC(=O)Cn2c(CS(=O)(=O)c3ccc(C)cc3)nc3ccccc32)cc1`, the half-maximal inhibitory concentration (IC50) was 25.7 µM. For `COc1cc(NC(=O)COC(=O)Cn2cnc3ccccc32)cc(OC)c1`, the IC50 is > 50 µM (inactive). On to `COc1ccc(NC(=O)C2CCCN(S(=O)(=O)N3CCCCCC3)C2)cc1` (stereo not given), for which the IC50 is > 50 µM (inactive). On to `CCN1C[C@@H]2C[C@]2(c2ccccc2OC)C(=O)c2ncccc21`, for which the IC50 was > 50 µM (inactive). In the case of `N#C/C(=C\c1ccc(-c2cc(Cl)ccc2Cl)o1)c1nnc2n1CCCCC2`, the IC50 is > 50 µM (inactive).

As for `Cc1ccccc1NC(=O)Cn1cncc(-c2nc(-c3ccccc3)cs2)c1=O`, the IC50 is > 50 µM (inactive). Take `COc1ccccc1CNC(=O)CCCCn1c(=O)c2ccccc2n(Cc2ccccc2C#N)c1=O`: the 50% inhibitory concentration (IC50) is 16.9 µM. For `COCCNC(=O)c1ccnn1-c1ccc2ccc(-c3cccnc3)cn12`, the IC50 was > 50 µM (inactive). Take `Cc1nc(-c2noc3ccc(C(=O)Nc4cccnc4)cc23)cs1`: the IC50 is 42.4 µM.

Regarding `O=C(Nc1ccc2ccccc2n1)c1ccc(Cl)cc1`, the IC50 is 28.8 µM. For `CC(=O)O[C@H]1[C@]2(O)C[C@]34SS[C@](CO)(C(=O)N3[C@@H]2C[C@@]12O[C@@H](C)C(C)(C)C2=O)N(C)C4=O`, the IC50 is > 50 µM (inactive). As to `Cc1cccc(COc2ccc(C3SCC(=O)Nc4n[nH]c(C)c43)cc2)c1` (stereo not given), the concentration for half-maximal inhibition (IC50) was 15.5 µM.

Take `O=C(Nc1ccc(F)cc1F)NC1CCN(c2ccccc2)C1=O` (stereo not given): the 50% inhibitory concentration (IC50) was 32.9 µM. For the compound `Cn1c2ccccc2c2ncn(Cc3ccc(F)cc3)c(=O)c21`, the IC50 is > 50 µM (inactive).

On to `Cn1c2ccccc2c(=O)c2c(=O)n(Cc3ccccc3)c(-c3ccccc3F)nc21`, for which the half-maximal inhibitory concentration (IC50) was 0.33 µM. On to `Cc1cc(SCc2ncon2)c(C)cc1Cl`, for which the IC50 is > 50 µM (inactive). Regarding `COc1ccc(C(=O)N2CCCC3(C2)Nc2cccnc2NC3=NC2CCCC2)cn1` (stereo not given), the IC50 is > 50 µM (inactive). As to `O=C(Nc1cc(-c2cccnc2)no1)c1ccc(F)c(F)c1`, the IC50 is 31.4 µM. For the compound `Cc1ccc2c(Nc3ccc(CC(=O)O)cc3)c(C(=O)N3CCCC3)cnc2n1`, the IC50 is > 50 µM (inactive). For the compound `Cc1cccc(C(=O)N2CCc3cc(-c4nc(NC(=O)CNc5ccccc5)sc4C)ccc32)c1`, the IC50 was > 50 µM (inactive). For the compound `Clc1cncc(Oc2nc(-c3cccnc3)nc3ccccc23)c1`, the IC50 was > 50 µM (inactive).
